Laboratory results taken from patent US20020187514A1 (priority 1999, published 2002).

Assays:
Adenosine Transporter = Adenosine Transporter (Homo sapiens, UniProt Q99808); test: biochemical; type: binding; details: read-out: Pass 1 (10^−5 M) % Inhibition
Adrenergic, Beta 2 = Adrenergic, Beta 2 (Homo sapiens, UniProt P07550); test: biochemical; type: binding; details: read-out: Pass 1 (10^−5 M) % Inhibition
Dopamine, D2s = molecular target: T1, Dopamine, D2s (Homo sapiens, UniProt P14416); test: Dopamine, D2s (Human Recombinant); [3H]-Spiperone; type: binding; details: read-out: Pass 1 (10^−5 M) % Inhibition
T1 construct: expressed in transfected cells
T1 sequence (P14416 other isoform, or with tags, fused parts or gaps): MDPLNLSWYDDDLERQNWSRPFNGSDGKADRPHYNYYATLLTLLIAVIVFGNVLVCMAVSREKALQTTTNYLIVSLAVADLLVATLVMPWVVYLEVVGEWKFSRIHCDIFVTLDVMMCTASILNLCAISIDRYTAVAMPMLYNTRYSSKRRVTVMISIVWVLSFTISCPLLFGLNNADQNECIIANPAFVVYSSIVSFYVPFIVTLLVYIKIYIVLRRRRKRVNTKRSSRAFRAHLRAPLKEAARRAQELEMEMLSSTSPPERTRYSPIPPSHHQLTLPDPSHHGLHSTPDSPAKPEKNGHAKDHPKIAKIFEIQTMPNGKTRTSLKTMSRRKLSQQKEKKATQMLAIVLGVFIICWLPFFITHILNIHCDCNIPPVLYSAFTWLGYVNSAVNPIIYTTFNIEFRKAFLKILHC

Dopamine, D3 = molecular target: T2, Dopamine, D3 (Rattus norvegicus, UniProt P19020); test: Dopamine, D3 (Rat Recombinant); [3H]7-OH-DPAT; type: binding; details: read-out: Pass 1 (10^−5 M) % Inhibition
T2 construct: expressed in transfected cells

Dopamine, D5 = molecular target: T3, Dopamine, D5 (Homo sapiens, UniProt P21918); test: biochemical; type: binding; details: read-out: Pass 1 (10^−5 M) % Inhibition
T3 construct: expressed in transfected cells

Glutamate, Kainate Site = test: Glutamate, Kainate Site; [3H]Kainic acid; type: binding; details: 10^−5 M
[1] = test system: Nicotinic (a-bungarotoxin insensitive); type: binding; details: 10^−5 M
[2] = molecular target: Norepinephrine Transporter (Rattus norvegicus, UniProt Q9WTR4); test: biochemical; type: binding; details: read-out: Pass 1 (10^−5 M) % Inhibition
Opiate, Delta 2 = molecular target: T4, Opiate, Delta 2 (Homo sapiens, UniProt P41143); test: Opiate, Delta 2 (Human Recombinant); [3H]-Naltrindole; type: binding; details: read-out: Pass 1 (10^−5 M) % Inhibition
T4 construct: expressed in transfected cells
T4 sequence (P41143 whole entry): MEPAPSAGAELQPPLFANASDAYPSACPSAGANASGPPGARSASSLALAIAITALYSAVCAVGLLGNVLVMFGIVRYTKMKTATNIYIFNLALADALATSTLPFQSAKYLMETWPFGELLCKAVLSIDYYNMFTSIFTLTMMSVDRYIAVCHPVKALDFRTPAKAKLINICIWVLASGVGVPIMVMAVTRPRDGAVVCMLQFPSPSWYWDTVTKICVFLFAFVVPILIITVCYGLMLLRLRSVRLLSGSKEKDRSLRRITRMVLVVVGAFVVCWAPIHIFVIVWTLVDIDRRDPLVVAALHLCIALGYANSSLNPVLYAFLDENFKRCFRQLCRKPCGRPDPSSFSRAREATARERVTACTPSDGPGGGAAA

Opiate, Mu = molecular target: T5, Opiate, Mu (Homo sapiens, UniProt P35372); test: biochemical; type: binding; details: read-out: Pass 1 (10^−5 M) % Inhibition
T5 construct: expressed in transfected cells

Purinergic, P2Y = Purinergic, P2Y (Human); [35S]-ATPas; type: binding; details: 10^−5 M
Serotonin, 5HT1A = Serotonin, 5HT1A (Homo sapiens, UniProt P08908); test: biochemical; type: binding; details: read-out: Pass 1 (10^−5 M) % Inhibition
Serotonin, 5HT1B = molecular target: T6, Serotonin, 5HT1B (Rattus norvegicus, UniProt P28564); test: biochemical; type: binding; details: read-out: Pass 1 (10^−5 M) % Inhibition
T6 construct: no other source notation after assay name denotes animal cell or animal tissue source; from tissue; host or cells: animal cell or animal tissue, not specified
T6 sequence (P28564 whole entry): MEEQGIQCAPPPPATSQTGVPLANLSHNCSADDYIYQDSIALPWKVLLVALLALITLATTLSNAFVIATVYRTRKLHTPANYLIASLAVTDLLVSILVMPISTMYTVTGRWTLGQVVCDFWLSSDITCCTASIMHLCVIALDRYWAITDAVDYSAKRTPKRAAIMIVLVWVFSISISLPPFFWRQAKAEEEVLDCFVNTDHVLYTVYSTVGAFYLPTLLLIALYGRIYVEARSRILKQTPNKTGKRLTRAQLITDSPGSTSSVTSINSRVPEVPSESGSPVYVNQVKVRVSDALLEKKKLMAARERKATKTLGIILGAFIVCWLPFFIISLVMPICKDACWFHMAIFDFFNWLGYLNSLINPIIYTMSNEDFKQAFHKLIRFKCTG

Serotonin, 5HT1D = Serotonin, 5HT1D (Homo sapiens, UniProt P28221); test: biochemical; type: binding; details: read-out: Pass 1 (10^−5 M) % Inhibition
Sequence of Serotonin, 5HT1D (P28221 whole entry): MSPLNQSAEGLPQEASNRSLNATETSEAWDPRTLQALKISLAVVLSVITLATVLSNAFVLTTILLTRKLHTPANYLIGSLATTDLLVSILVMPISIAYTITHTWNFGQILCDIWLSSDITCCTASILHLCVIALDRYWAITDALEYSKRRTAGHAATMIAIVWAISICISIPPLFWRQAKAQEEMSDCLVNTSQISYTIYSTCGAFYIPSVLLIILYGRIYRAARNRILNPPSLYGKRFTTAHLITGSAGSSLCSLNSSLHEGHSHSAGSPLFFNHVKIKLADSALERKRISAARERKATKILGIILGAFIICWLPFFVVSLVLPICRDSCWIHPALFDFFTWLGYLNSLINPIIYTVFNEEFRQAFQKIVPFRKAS

Serotonin, 5HT2C = Serotonin, 5HT2C (UniProt K7GSR7); type: binding
Sequence of Serotonin, 5HT2C (K7GSR7 1-457): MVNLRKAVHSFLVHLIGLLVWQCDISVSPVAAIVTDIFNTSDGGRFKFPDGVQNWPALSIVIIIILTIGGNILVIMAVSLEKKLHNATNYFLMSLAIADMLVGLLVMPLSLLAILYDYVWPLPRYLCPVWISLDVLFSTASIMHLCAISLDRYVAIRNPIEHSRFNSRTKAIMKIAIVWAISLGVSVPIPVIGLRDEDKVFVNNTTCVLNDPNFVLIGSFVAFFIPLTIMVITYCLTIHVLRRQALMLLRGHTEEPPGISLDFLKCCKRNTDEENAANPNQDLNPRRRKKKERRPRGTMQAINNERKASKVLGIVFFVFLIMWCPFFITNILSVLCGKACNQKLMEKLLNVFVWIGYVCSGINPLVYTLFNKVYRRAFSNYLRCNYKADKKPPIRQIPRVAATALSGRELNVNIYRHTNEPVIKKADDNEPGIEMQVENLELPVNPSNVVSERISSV

Serotonin, 5HT3 = Serotonin, 5HT3 (Mus musculus, UniProt P23979); test: biochemical; type: binding
Sequence of Serotonin, 5HT3 (P23979 24-489): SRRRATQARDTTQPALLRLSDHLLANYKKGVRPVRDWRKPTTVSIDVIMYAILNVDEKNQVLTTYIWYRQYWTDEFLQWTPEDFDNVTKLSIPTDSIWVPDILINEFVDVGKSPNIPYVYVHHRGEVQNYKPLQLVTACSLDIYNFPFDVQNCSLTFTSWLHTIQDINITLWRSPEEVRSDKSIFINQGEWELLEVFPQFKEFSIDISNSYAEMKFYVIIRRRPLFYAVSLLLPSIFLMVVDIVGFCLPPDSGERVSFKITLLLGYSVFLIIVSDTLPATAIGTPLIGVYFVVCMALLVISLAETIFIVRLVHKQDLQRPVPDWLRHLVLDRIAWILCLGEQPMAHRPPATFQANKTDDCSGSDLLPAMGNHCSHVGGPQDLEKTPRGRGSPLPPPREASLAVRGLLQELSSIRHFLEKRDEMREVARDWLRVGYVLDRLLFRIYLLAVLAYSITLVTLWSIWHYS

Complement C5a = Complement C5a (Homo sapiens, UniProt P21730); test: Complement C5a (Human); [125I]BH-rC5a; type: binding; details: read-out: Pass 1 (10^−5 M) % Inhibition
Progesterone = Progesterone (Bos taurus, UniProt F1N712); test: Progesterone; [3H]Promegestone; type: binding; details: read-out: Pass 1 (10^−5 M) % Inhibition
Sequence of Progesterone (F1N712 entry or part of it): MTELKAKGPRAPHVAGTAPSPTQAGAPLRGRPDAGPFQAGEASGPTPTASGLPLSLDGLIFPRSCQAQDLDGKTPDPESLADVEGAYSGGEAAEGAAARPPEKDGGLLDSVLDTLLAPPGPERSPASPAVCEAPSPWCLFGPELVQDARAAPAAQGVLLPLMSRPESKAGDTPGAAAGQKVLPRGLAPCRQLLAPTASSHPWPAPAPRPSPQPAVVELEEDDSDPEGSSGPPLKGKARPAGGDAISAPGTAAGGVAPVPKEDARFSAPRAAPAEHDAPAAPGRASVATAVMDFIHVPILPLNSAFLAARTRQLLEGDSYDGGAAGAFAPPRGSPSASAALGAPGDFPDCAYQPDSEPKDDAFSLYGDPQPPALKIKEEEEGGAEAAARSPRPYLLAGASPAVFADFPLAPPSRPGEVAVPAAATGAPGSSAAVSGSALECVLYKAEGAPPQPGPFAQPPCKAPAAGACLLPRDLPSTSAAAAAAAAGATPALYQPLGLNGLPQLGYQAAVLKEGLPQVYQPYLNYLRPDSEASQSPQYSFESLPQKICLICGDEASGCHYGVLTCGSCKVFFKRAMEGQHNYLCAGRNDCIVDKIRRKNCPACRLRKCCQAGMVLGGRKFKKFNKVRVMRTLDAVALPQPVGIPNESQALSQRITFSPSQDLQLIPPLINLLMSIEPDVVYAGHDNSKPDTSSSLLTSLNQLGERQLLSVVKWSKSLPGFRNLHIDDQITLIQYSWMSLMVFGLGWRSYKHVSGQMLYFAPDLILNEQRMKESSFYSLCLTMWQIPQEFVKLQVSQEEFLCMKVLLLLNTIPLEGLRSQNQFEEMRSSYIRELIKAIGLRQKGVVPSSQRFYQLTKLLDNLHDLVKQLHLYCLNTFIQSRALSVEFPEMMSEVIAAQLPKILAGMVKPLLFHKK

Testosterone (cytosolic) = Testosterone (cytosolic) (UniProt P15207); type: binding
[3] = molecular target: Calcium Channel, Type L (Benzothiazepine Site) (Rattus norvegicus, UniProt P22002); test: Calcium Channel, Type L (Benzothiazepine Site); [3H]Diltiazem, cis(+); type: binding; details: read-out: Pass 1 (10^−5 M) % Inhibition
[4] = test system: Glutamate, Chloride Dependent Site; test: Glutamate, Chloride Dependent Site; [3H]Glutamic Acid; type: binding; details: 10^−5 M
[5] = test system: Glutamate, NMDA, Phencyclidine Site; test: Glutamate, NMDA, Phencyclidine Site; [3H]TCP; type: binding; details: 10^−5 M
[6] = test system: Potassium Channel, Ca2+ Act., VI; test: Potassium Channel, Ca2+ Act., VI; [125I]Apamin; type: binding; details: 10^−5 M
Protein Kinase C, PDBu = type: binding
[7] = test system: Corticotropin Releasing Factor, CRF; type: binding
Oxytocin = type: binding; details: 10^−5 M
[8] = test system: Thyrotropin Releasing Hormone, TRH; test: Thyrotropin Releasing Hormone, TRH; [3H]-(3MeHis2)TRH; type: binding; details: 10^−5 M
Bradykinin, BK2 = molecular target: T7, Bradykinin, BK2 (Homo sapiens, UniProt P30411); test: Bradykinin, BK2 (Human recombinant); [3H]-Bradykinin; type: binding; details: read-out: Pass 1 (10^−5 M) % Inhibition
T7 construct: expressed in transfected cells

[9] = test system: Cholecystokinin, CCK1 (CCKA); test: Cholecystokinin, CCK1 (CCKA); [125I]CCK-8; type: binding; details: 10^−5 M
[10] = test system: Cholecystokinin, CCK2 (CCKB); test: Cholecystokinin, CCK2 (CCKB); [125I]CCK-8; type: binding; details: 10^−5 M
Galanin = test: Galanin; [I125]Galanin; type: binding
Neurokinin, NK1 = type: binding; details: 10^−5 M
Neurotensin = molecular target: T8, Neurotensin (Homo sapiens, UniProt P30989); test: biochemical; type: binding; details: read-out: Pass 1 (10^−5 M) % Inhibition
T8 construct: expressed in transfected cells

Vasopressin 1 = molecular target: T9, Vasopressin 1 (Rattus norvegicus, UniProt P30560); test: biochemical; type: binding; details: read-out: Pass 1 (10^−5 M) % Inhibition
T9 construct: no other source notation after assay name denotes animal cell or animal tissue source; from tissue

Elastase = molecular target: T10, Elastase (Homo sapiens, UniProt P08246); test: Elastase (Human); substrate MeO-Suc-Ala-Ala-Pro-Val-pNA; type: biochemical; details: read-out: Pass 1 (10^−5 M) % Inhibition
T10 construct: from human cell lines; endogenous in cells

[11] = test system: Protein Tyrosine Phosphatase, PTP-B; test: Protein Tyrosine Phosphatase, PTP-B (Human); substrate pNPP; type: biochemical; details: 10^−5 M; footnote: not confirmed in QA/QC follow-up
[12] = test system: Protein Tyrosine Phosphatase, PTP-Cell; test: Protein Tyrosine Phosphatase, PTP-Cell (Human); substrate pNPP; type: biochemical; details: 10^−5 M
[13] = reported in vivo pharmacology, cited from earlier work
Dopamine, D1 = Dopamine, D1 (Homo sapiens, UniProt P21728); test: biochemical; details: read-out: Pass 1 (10^−5 M) % Inhibition
Muscarinic, M1 = Muscarinic, M1 (Homo sapiens, UniProt P11229); test: biochemical; details: read-out: Pass 1 (10^−5 M) % Inhibition
Sequence of Muscarinic, M1 (P11229 whole entry): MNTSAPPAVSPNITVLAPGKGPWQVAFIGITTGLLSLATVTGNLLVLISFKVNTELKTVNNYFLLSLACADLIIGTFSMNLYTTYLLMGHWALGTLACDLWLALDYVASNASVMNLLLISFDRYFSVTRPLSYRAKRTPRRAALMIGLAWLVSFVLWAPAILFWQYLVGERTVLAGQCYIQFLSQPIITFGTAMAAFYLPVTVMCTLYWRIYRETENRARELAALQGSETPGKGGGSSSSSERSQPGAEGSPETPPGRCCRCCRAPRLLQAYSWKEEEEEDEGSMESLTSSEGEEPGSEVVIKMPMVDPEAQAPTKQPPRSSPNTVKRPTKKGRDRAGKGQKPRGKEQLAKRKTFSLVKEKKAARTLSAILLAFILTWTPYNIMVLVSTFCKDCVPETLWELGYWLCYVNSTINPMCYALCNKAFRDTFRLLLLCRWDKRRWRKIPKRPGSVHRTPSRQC

Serotonin Transporter = Serotonin Transporter (Homo sapiens, UniProt P31645); test: biochemical; details: read-out: Pass 1 (10^−5 M) % Inhibition
Sequence of Serotonin Transporter (P31645 whole entry): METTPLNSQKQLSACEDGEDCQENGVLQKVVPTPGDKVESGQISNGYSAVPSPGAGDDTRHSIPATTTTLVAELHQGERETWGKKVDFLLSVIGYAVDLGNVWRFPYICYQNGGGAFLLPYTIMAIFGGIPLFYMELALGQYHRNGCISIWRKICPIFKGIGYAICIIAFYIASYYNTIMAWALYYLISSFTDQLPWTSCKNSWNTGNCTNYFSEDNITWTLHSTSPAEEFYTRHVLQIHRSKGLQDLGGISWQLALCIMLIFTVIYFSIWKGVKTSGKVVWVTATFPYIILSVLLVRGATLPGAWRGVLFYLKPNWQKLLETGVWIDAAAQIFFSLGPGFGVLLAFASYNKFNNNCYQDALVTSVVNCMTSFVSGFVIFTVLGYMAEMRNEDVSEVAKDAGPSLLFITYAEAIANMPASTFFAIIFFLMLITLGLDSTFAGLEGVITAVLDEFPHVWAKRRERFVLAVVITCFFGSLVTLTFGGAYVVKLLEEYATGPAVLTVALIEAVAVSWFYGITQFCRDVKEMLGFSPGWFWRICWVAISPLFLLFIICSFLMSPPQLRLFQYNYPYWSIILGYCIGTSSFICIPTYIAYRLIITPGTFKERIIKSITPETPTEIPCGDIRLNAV

Sequence of Adenosine Transporter (Q99808 whole entry): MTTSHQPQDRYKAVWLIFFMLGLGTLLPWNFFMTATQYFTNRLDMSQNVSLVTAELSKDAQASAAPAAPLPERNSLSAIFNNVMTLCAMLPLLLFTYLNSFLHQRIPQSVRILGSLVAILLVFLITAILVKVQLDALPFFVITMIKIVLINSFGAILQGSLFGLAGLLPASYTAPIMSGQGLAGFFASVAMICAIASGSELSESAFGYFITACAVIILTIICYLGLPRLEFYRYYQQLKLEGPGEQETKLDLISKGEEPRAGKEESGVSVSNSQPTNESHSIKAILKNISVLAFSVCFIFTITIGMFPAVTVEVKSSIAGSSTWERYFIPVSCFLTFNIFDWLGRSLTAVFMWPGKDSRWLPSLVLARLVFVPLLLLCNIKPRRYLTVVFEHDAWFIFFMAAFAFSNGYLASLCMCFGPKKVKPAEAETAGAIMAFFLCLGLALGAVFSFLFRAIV

COC(=O)[C@H]1[C@@H](OC(=O)c2ccccc2)C[C@@H]2CC[C@H]1N2C [cocaine]
inhibition at 10 µM (Adenosine Transporter): 16.5% | inhibition at 10 µM (Adrenergic, Beta 2): -15.6% | inhibition at 10 µM (Dopamine, D2s): 30.6% | inhibition at 10 µM (Dopamine, D3): 30.2% | inhibition at 10 µM (Dopamine, D5): 2.44% | Pass 1 (10^−5 M) % Inhibition (Glutamate, Kainate Site): 1.95% | Pass 1 (10^−5 M) % Inhibition [1]: 12.28% | inhibition at 10 µM [2]: 60% | inhibition at 10 µM (Opiate, Delta 2): 21.5% | inhibition at 10 µM (Opiate, Mu): 3.08% | Pass 1 (10^−5 M) % Inhibition (Purinergic, P2Y): 16.43% | inhibition at 10 µM (Serotonin, 5HT1A): 7.63% | inhibition at 10 µM (Serotonin, 5HT1B): 3.31% | inhibition at 10 µM (Serotonin, 5HT1D): 3.12% | Pass 1 (10^−5 M) % Inhibition (Serotonin, 5HT2C): 1.44% | Ki (Serotonin, 5HT3; Pass 3 screening, nine concentrations, read-out: Ki Determination): 3.09 µM | inhibition at 10 µM (Serotonin, 5HT3; read-out: Pass 1 (10^−5 M) % Inhibition): 60.3% | inhibition at 10 µM (Complement C5a): 15.2% | inhibition at 10 µM (Progesterone): -10.9% | Pass 1 (10^−5 M) % Inhibition (Testosterone (cytosolic)): −7.60% | inhibition at 10 µM [3]: 20.3% | Pass 1 (10^−5 M) % Inhibition [4]: 5.36% | Pass 1 (10^−5 M) % Inhibition [5]: 6.63% | Pass 1 (10^−5 M) % Inhibition [6]: 11.04% | Pass 1 (10^−5 M) % Inhibition (Protein Kinase C, PDBu): −4.44% | Pass 1 (10^−5 M) % Inhibition [7]: 22.49% | Pass 1 (10^−5 M) % Inhibition (Oxytocin): −4.65% | Pass 1 (10^−5 M) % Inhibition [8]: −11.95% | inhibition at 10 µM (Bradykinin, BK2): 4.48% | Pass 1 (10^−5 M) % Inhibition [9]: 11.15% | Pass 1 (10^−5 M) % Inhibition [10]: −14.06% | Pass 1 (10^−5 M) % Inhibition (Galanin): −14.73% | Pass 1 (10^−5 M) % Inhibition (Neurokinin, NK1): −1.72% | inhibition at 10 µM (Neurotensin): 19.1% | inhibition at 10 µM (Vasopressin 1): 0.98% | inhibition at 10 µM (Elastase): -11.2% | Pass 1 (10^−5 M) % Inhibition [11]: 65.03% | Pass 1 (10^−5 M) % Inhibition [12]: −17.63% | effects of high dosages ([13]; high dosages): euphoria, involuntary motor activity, stereotypic behavior, paranoia, and irritability and increased risk of violence | effect on heart rate and blood pressure [13]: dosage dependent increase in heart rate and blood pressure | inhibition at 10 µM (Dopamine, D1): 17.5% | inhibition at 10 µM (Muscarinic, M1): 23.3% | inhibition at 10 µM (Serotonin Transporter): 97.5%
